# Source: patent publication US11465984B2, “Compound having ERK kinase inhibitory activity and use thereof” (SHANGHAI HAIHE PHARMACEUTICAL CO., LTD., priority 2017, dated 2022)
# Target: ERK2 kinase (Homo sapiens (Human), UniProt P28482)
# Assay: In vitro enzyme activity assay, ERK2 kinase (Z'-LYTE)
# Assay type: biochemical
# Settings: class symbols; read-out: ERK2 IC50
# Protocol: Half inhibitory activity of the compounds of the invention against ERK2 kinase (IC50 value) was determined in this Example.
# • Enzyme: extracellular signal-regulated kinase ERK2 kinase (PV3595, Invitrogen) • Kit: Z′-LYTE® Protein Kinase Assay Kit-Ser/Thr 3 Peptide (PV3176, Invitrogen) • Kit components: The substrate Z′-LYTE™ Ser/Thr 3 Peptide (PV3200) • The phosphorylation substrate Z′-LYTE™ Ser/Thr 3 Phospho-peptide (PV3215) • 5× kinase buffer: 250 mM HEPES (pH 7.5), 50 mM MgCl2, • 5 mM EGTA, 0.05% BRIJ-35 (PV3189, Invitrogen) • ATP (PV3227, Invitrogen) • Development Reagent A (PV3295, Invitrogen) • Development Buffer (P3127, Invitrogen) • Stop Reagent (P3094, Invitrogen) • Microplate reader: The multil-mode microplate reader PerkinElmer EnVision® • Microplate: black shallow 384-well microplate (6008269, PerkinElmer) (2). Assay Protocol:
# The substrate Z′-LYTE™ Ser/Thr 3 Peptide, the phosphorylation substrate Z′-LYTE™ Ser/Thr 3 Phospho-peptide, 1× kinase buffer (5× kinase buffer was diluted with ultra pure water by five times), ATP, Development Reagent A, Development Buffer, Stop Reagent were balanced to room temperature for use. The screening concentrations for detecting the effect of the compounds of the invention on the ERK kinase activity were seven 3-fold serial dilutions starting from 1 μM (from 0.2 μM for the positive drug control) using 4% DMSO as co-solvent. 5 μL enzyme system (50 mM HEPES pH 7.5, 1 mM EGTA, 10 mM MgCl2, 0.01% Brij-35, 4 uM substrate, 0.8 ng/μL enzyme), 2.5 μL Compound, 2.5 μL 400 μM ATP were added into 384 well microplate, followed by incubation at room temperature for 60 min in the dark. After the reaction was completed, 5 μl the developing agent (Development Reagent A) diluted with the developing buffer (Development Buffer) was added to all reaction wells, followed by incubation at the room temperature for 60 min in the dark. 5 μL the terminating agent was added to each well to terminate the reaction. The fluorescence was determined using the multil-mode microplate reader PerkinElmer EnVision® (excitation wavelength 400 nm, emission wavelength 460 nm and 528 nm).
# The inhibition rate of each well was calculated from 100% phosphorylation substrate well and 0% phosphorylation substrate well using the data analysis method below: phosphorylation %=1−{(emission rate×F100%−C100%)/[C0%−C100%+emission rate×(F100%−F0%)]}×100 inhibition %=100×(1−phosphorylation % of the test compound well/phosphorylation % of the 0% inhibition control) • wherein: • emission rate=fluorescence emission of the sample at 445 nm/fluorescence emission of the sample at 520 nm • F100%=the average fluorescence emission of the control well of 100% phosphorylation substrate at 520 nm • F0%=the average fluorescence emission of the control well of 0% phosphorylation substrate at 520 nm • C100%=the average fluorescence emission of the control well of 100% phosphorylation substrate at 445 nm • C0%=the average fluorescence emission of the control well of 0% phosphorylation substrate at 445 nm
# Tests were carried out in duplicate. IC50 values were calculated from the inhibition of the kinase by the test compounds at a range of different concentrations.
# Chain of ERK2 kinase (P28482 whole entry): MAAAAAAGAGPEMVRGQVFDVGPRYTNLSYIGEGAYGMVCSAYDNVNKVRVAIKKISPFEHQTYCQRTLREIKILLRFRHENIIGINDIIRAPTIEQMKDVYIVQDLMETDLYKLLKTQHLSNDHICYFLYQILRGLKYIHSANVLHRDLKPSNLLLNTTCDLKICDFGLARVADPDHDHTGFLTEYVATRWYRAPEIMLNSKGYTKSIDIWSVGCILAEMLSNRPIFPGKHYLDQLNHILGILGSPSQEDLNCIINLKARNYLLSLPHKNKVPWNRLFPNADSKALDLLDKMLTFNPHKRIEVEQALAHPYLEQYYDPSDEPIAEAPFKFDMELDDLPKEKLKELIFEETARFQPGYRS
row,Structure (SMILES),IC50 [nM]
1,"CC(CO)Nc1nccc(-c2cc(F)c3c(c2)CCN3C(=O)Cc2cccnc2Cl)n1 (stereo not shown) [Example P1, 2-(2-chloropyridin-3-yl)-1-(7-fluoro-5-(2-((1-hydroxylprop-2-yl)amino)pyrimidin-4-yl)indolin-1-yl)ethan-1-one]",100 to 1000
2,"O=C(Cc1cccnc1Cl)N1CCc2cc(-c3ccnc(NCCO)n3)cc(F)c21 [Example P2, 2-(2-chloropyridin-3-yl)-1-(7-fluoro-5-(2-((2-hydroxylethyl)amino)pyrimidin-4-yl)indolin-1-yl)ethan-1-one]",10 to 100
3,"O=C(Cc1cccnc1Cl)N1CCc2cc(-c3ccnc(NC4CCC(O)CC4)n3)cc(F)c21 (stereo not shown) [Example P3, 2-(2-chloropyridin-3-yl)-1-(7-fluoro-5-(2-((4-hydroxylcyclohexyl)amino)pyrimidin-4-yl)indolin-1-yl)ethan-1-one]",10 to 100
4,"O=C(Cc1cccnc1Cl)N1CCc2cc(-c3ccnc(NC4CCC(O)C4)n3)cc(F)c21 (stereo not shown) [Example P4, 2-(2-chloropyridin-3-yl)-1-(7-fluoro-5-(2-((3-hydroxylcyclopentyl)amino)pyrimidin-4-yl)indolin-1-yl)ethan-1-one]",10 to 100
5,"O=C(Cc1cccnc1Cl)N1CCc2cc(-c3ccnc(NC4CCOCC4)n3)cc(F)c21 [Example P5, 2-(2-chloropyridin-3-yl)-1-(7-fluoro-5-(2-((tetrahydro-2H-pyran-4-yl)amino)pyrimidin-4-yl)indolin-1-yl)ethan-1-one]",≤ 10
6,"O=C(Cc1cccnc1Cl)N1CCc2cc(-c3ccnc(NC4CCOC4)n3)cc(F)c21 (stereo not shown) [Example P6, 2-(2-chloropyridin-3-yl)-1-(7-fluoro-5-(2-((tetrahydrofuran-3-yl)amino)pyrimidin-4-yl)indolin-1-yl)ethan-1-one]",10 to 100
7,"CC(CCO)Nc1nccc(-c2cc(F)c3c(c2)CCN3C(=O)Cc2cccnc2Cl)n1 (stereo not shown) [Example P7, 2-(2-chloropyridin-3-yl)-1-(7-fluoro-5-(2-((4-hydroxylbutan-2-yl)amino)pyrimidin-4-yl)indolin-1-yl)ethan-1-one]",10 to 100
8,"CC(CO)Nc1cc(-c2cc(F)c3c(c2)CCN3C(=O)Cc2cccnc2Cl)ccn1 (stereo not shown) [Example P8, 2-(2-chloropyridin-3-yl)-1-(7-fluoro-5-(2-((1-hydroxylprop-2-yl)amino)pyridin-4-yl)indolin-1-yl)ethan-1-one]",100 to 1000
9,"Cn1nccc1Nc1nccc(-c2cc(F)c3c(c2)CCN3C(=O)Cc2cccnc2Cl)n1 [Example P10, 2-(2-chloropyridin-3-yl)-1-(7-fluoro-5-(2-((1-methyl-1H-pyrazol-5-yl)amino)pyrimidin-4-yl)indolin-1-yl)ethan-1-one]",≤ 10
10,"Cn1nccc1Nc1nccc(-c2cc(Cl)c3c(c2)CCN3C(=O)Cc2cccnc2Cl)n1 [Example P11, 1-(7-chloro-5-(2-((1-methyl-1H-pyrazol-5-yl)amino)pyrimidin-4-yl)indolin-1-yl)-2-(2-chloropyridin-3-yl)ethan-1-one]",10 to 100
11,"Cn1nccc1Nc1nccc(-c2cc(F)c3c(c2)CCN3C(=O)Cc2ccc(F)cc2F)n1 [Example P12, 2-(2,4-difluorophenyl)-1-(7-fluoro-5-(2-((1-methyl-1H-pyrazol-5-yl)amino)pyrimidin-4-yl)indolin-1-yl)ethan-1-one]",10 to 100
12,"Cc1cc(-c2ccnc(Nc3ccnn3C)n2)cc2c1N(C(=O)Cc1cccnc1Cl)CC2 [Example P13, 2-(2-chloropyridin-3-yl)-1-(7-methyl-5-(2-((1-methyl-1H-pyrazol-5-yl)amino)pyrimidin-4-yl)indolin-1-yl)ethan-1-one]",100 to 1000
13,"Cn1nccc1Nc1cc(-c2cc(Cl)c3c(c2)CCN3C(=O)Cc2cccnc2Cl)ccn1 [Example P14, 1-(7-chloro-5-(2-((1-methyl-1H-pyrazol-5-yl)amino)pyridin-4-yl)indolin-1-yl)-2-(2-chloropyridin-3-yl)ethan-1-one]",10 to 100
14,"Cn1nccc1Nc1nccc(-c2cc(F)c3c(c2)CCN3C(=O)Cc2ccccc2F)n1 [Example P17, 1-(7-fluoro-5-(2-((1-methyl-1H-pyrazol-5-yl)amino)pyrimidin-4-yl)indolin-1-yl)-2-(2-fluorophenyl)ethan-1-one]",10 to 100
15,"Cn1nccc1Nc1nccc(-c2cc(F)c3c(c2)CCN3C(=O)Cc2ccccc2Cl)n1 [Example P18, 2-(2-chlorophenyl)-1-(7-fluoro-5-(2-((1-methyl-1H-pyrazol-5-yl)amino)pyrimidin-4-yl)indolin-1-yl)ethan-1-one]",≤ 10
16,"Cn1nccc1Nc1nccc(-c2cc(F)c3c(c2)CCN3C(=O)Cc2ccc(Cl)cc2)n1 [Example P19, 2-(4-chlorophenyl)-1-(7-fluoro-5-(2-((1-methyl-1H-pyrazol-5-yl)amino)pyrimidin-4-yl)indolin-1-yl)ethan-1-one]",100 to 1000
17,"Cn1nccc1Nc1cc(-c2cc(F)c3c(c2)CCN3C(=O)Cc2ncccc2Cl)ccn1 [Example P28, 2-(3-chloropyridin-2-yl)-1-(7-fluoro-5-(2-((1-methyl-1H-pyrazol-5-yl)amino)pyridin-4-yl)indolin-1-yl)ethan-1-one]",10 to 100

# Continued, values first:
row,IC50 [nM],Structure (SMILES)
1,100 to 1000,"O=C(Cc1cccnc1Cl)N1CCc2cc(-c3ccnc(NC4CC(O)C4)c3)cc(F)c21 (racemic) [Example P53, 2-(2-chloropyridin-3-yl)-1-(7-fluoro-5-(2-((3-hydroxylcyclobutyl)amino)pyridin-4-yl)indolin-1-yl)ethan-1-one]"
2,10 to 100,"Cn1nccc1Nc1cc(-c2cc(F)c3c(c2)CCN3C(=O)Cc2cccc(Cl)n2)ccn1 [Example P29, 2-(6-chloropyridin-2-yl)-1-(7-fluoro-5-(2-((1-methyl-1H-pyrazol-5-yl)amino)pyridin-4-yl)indolin-1-yl)ethan-1-one]"
3,10 to 100,"Cn1nccc1Nc1nccc(-c2cc(F)c3c(c2)CCN3C(=O)Cc2ccccc2C#N)n1 [Example P30, 2-(2-(7-fluoro-5-(2-((1-methyl-1H-pyrazol-5-yl)amino)pyrimidin-4-yl)indolin-1-yl)-2-oxoethyl)benzonitrile]"
4,≤ 10,"Cn1nccc1Nc1cc(-c2cc(F)c3c(c2)CCN3C(=O)Cc2ccccc2Cl)ccn1 [Example P31, 2-(2-chlorophenyl)-1-(7-fluoro-5-(2-((1-methyl-1H-pyrazol-5-yl)amino)pyridin-4-yl)indolin-1-yl)ethan-1-one]"
5,≤ 10,"CC1Cc2cc(-c3ccnc(Nc4ccnn4C)n3)cc(F)c2N1C(=O)Cc1cccnc1Cl (stereo not shown) [Example P32, 2-(2-chloropyridin-3-yl)-1-(7-fluoro-2-methyl-5-(2-((1-methyl-1H-pyrazol-5-yl)amino)pyrimidin-4-yl)indolin-1-yl)ethan-1-one]"
6,10 to 100,"Cn1nccc1Nc1nccc(-c2cc(F)c3c(c2)CCN3C(=O)Cc2c(F)ccnc2Cl)n1 [Example P33, 2-(2-chloro-4-fluoropyridin-3-yl)-1-(7-fluoro-5-(2-((1-methyl-1H-pyrazol-5-yl)amino)pyrimidin-4-yl)indolin-1-yl)ethan-1-one]"
7,10 to 100,"Cn1nccc1Nc1nccc(-c2cc(F)c3c(c2)CCN3C(=O)Cc2cc(Cl)ccc2F)n1 [Example P34, 2-(5-chloro-2-fluorophenyl)-1-(7-fluoro-5-(2-((1-methyl-1H-pyrazol-5-yl)amino)pyrimidin-4-yl)indolin-1-yl)ethan-1-one]"
8,10 to 100,"Cn1nc(CO)cc1Nc1cc(-c2cc(F)c3c(c2)CCN3C(=O)Cc2cccnc2Cl)ccn1 [Example P35, 2-(2-chloropyridin-3-yl)-1-(7-fluoro-5-(2-((3-(hydroxylmethyl)-1-methyl-1H-pyrazol-5-yl)amino)pyridin-4-yl)indolin-1-yl)ethan-1-one]"
9,10 to 100,"Cn1nccc1Nc1nccc(-c2cc(F)c3c(c2)CCN3C(=O)Cc2ccc(F)cc2Cl)n1 [Example P36, 2-(2-chloro-4-fluorophenyl)-1-(7-fluoro-5-(2-((1-methyl-1H-pyrazol-5-yl)amino)pyrimidin-4-yl)indolin-1-yl)ethan-1-one]"

# Same assay, conditions: read-out: IC50 against ERK2 kinase
row,IC50 [nM],Structure (SMILES)
1,6.1,"Cn1nccc1Nc1nccc(-c2cc(F)c3c(c2)CCN3C(=O)Cc2cccnc2Cl)n1 [Example P10, 2-(2-chloropyridin-3-yl)-1-(7-fluoro-5-(2-((1-methyl-1H-pyrazol-5-yl)amino)pyrimidin-4-yl)indolin-1-yl)ethan-1-one]"
2,3,"Cn1nccc1Nc1nccc(-c2cc(F)c3c(c2)CCN3C(=O)Cc2ccccc2Cl)n1 [Example P18, 2-(2-chlorophenyl)-1-(7-fluoro-5-(2-((1-methyl-1H-pyrazol-5-yl)amino)pyrimidin-4-yl)indolin-1-yl)ethan-1-one]"
